Molecules are shown by their SMILES.

Consider seven compounds from patent publication US9339503B2, “Tetrahydro-quinazolinone derivatives as TANK and PARP inhibitors” (MERCK PATENT GMBH, priority 2012, dated 2016).

One test deals with T1, His-tagged Parp-1 (Homo sapiens, UniProt P09874).
T1 construct: purchased Enzo Life Sciences GmbH, Lörrach, Germany
The experiment in a line: PARP-1 autoparsylation assay (HTRF). Format: biochemical. The settings on record: read-out: IC50 PARP1. How it is done: Biochemical Activity Testing of PARP-1: Autoparsylation Assay
The autoparsylation assay was run in two steps: the enzymatic reaction in which His-tagged Parp-1 transferred biotinylated ADP-ribose/ADP-ribose to itself from biotinylated NAD/NAD as co-substrate and the detection reaction where a time resolved FRET between cryptate labelled anti-His antibody bound to the His tag of the enzyme and Xlent® labelled-streptavidin bound the biotin-parsylation residue was analysed. The autoparsylation activity was detectable directly via the increase in HTRF signal.
The autoparsylation assay was performed as 384-well HTRF® (Cisbio, Codolet, France) assay format in Greiner low volume nb 384-well microtiter plates. 35 nM His-tagged Parp-1 (human, recombinant, Enzo Life Sciences GmbH, Lörrach, Germany) and a mixture of 125 nM bio-NAD (Biolog, Life science Inst., Bremen, Germany) and 800 nM NAD as co-substrate were incubated in a total volume of 6 μl (100 mM Tris/HCl, 4 mM Mg-chloride, 0.01% IGEPAL® CA630, 1 mM DTT, 0.5% DMSO, pH 8, 13 ng/μl activated DNA (BPS Bioscience, San Diego, US)) in the absence or presence of the test compound (10 dilution concentrations) for 150 min at 23° C. The reaction was stopped by the addition of 4 μl of the Stop/detection solution (70 nM SA-Xlent® (Cisbio, Codolet, France), 2.5 nM Anti-His-K® (Eu-labelled anti-His, Cisbio, Codolet, France) in 50 mM HEPES, 400 mM KF, 0.1% BSA, 20 mM EDTA, pH 7.0). After 1 h incubation at room temperature the HTRF was measured with an Envision multimode reader (Perkin Elmer LAS Germany GmbH) at excitation wavelength 340 nm (laser mode) and emission wavelengths 615 nm and 665 nm. The ratio of the emission signals was determined. The full value used was the inhibitor-free reaction. The pharmacological zero value used was Olaparib (LClabs, Woburn, US) in a final concentration of 1 μM. The inhibitory values (IC50) were determined using either the program Symyx Assay Explorer® or Condosseo® from GeneData.
Background: Time-resolved FRET reads energy transfer from a long-lived donor to a nearby acceptor.

In test [1] the target is T2, GST-tagged Tnks-1 (1023-1327 aa) (Homo sapiens, UniProt O95271).
T2 construct: GST-tagged Tnks-1 (1023-1327 aa, prepared in-house); made in house
The experiment in a line: TNKS 1 activity ELISA (autoparsylation assay). Format: biochemical. The settings on record: read-out: IC50 tankyrase 1 (ELISA assay).

T2 sequence (O95271 1023-1327): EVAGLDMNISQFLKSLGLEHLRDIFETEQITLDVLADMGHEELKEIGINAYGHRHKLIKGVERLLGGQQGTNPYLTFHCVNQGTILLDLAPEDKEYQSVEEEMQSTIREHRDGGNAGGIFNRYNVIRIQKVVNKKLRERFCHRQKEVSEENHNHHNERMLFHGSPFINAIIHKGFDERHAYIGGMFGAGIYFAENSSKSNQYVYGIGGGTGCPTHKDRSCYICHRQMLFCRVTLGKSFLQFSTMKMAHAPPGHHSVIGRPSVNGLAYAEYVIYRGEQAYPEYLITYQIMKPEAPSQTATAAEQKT
T1 sequence (P09874 whole entry): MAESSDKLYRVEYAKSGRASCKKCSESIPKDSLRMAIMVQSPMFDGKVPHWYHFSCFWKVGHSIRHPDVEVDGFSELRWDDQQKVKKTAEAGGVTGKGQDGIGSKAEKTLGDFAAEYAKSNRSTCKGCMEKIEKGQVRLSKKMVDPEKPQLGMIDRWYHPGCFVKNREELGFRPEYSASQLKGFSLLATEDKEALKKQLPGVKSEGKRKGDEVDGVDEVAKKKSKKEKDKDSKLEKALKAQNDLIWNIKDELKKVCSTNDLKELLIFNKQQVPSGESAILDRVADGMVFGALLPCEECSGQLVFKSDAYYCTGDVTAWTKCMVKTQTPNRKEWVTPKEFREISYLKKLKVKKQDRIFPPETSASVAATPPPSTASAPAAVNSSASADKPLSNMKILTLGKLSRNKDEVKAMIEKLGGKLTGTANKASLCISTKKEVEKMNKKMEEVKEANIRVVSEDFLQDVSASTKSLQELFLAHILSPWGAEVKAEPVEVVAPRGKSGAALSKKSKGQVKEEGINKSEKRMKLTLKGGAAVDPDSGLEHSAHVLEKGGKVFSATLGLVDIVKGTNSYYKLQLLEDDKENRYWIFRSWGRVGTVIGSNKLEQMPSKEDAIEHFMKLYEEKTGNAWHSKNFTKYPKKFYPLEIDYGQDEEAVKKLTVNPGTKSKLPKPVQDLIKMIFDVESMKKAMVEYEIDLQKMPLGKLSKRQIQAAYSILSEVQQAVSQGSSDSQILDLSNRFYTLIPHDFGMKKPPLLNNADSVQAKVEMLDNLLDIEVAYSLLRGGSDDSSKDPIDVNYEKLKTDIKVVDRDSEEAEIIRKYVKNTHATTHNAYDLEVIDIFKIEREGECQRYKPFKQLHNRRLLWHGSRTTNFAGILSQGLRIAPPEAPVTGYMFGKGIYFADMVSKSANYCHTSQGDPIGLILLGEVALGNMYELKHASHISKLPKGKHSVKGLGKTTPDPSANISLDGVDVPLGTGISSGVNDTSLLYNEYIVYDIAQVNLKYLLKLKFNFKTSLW

As usually defined, the IC50 is the concentration needed to halve the response being measured. As for `COc1cccc(N2CCN(c3nc4c(c(=O)[nH]3)CCCC4)CC2)c1` [Compound A7, 2-[4-(3-Methoxyphenyl)piperazin-1-yl]-5,6,7,8-tetrahydro-3H-quinazolin-4-one], the IC50 at His-tagged Parp-1 is 300 to 3000 nM; in test [1] it was under 300 nM.
As to `COc1ccccc1N1CCN(c2nc3c(c(=O)[nH]2)CCCC3)CC1` [Compound A12, 2-[4-(2-Methoxyphenyl)piperazin-1-yl]-5,6,7,8-tetrahydro-3H-quinazolin-4-one], the IC50 on His-tagged Parp-1 was 300 to 3000 nM; in test [1] it was under 300 nM.
In the same order, the values of `O=c1[nH]c(N2CCN(c3ccccc3Cl)CC2)nc2c1CCCC2` [Compound A9, 2-[4-(2-Chlorophenyl)piperazin-1-yl]-5,6,7,8-tetrahydro-3H-quinazolin-4-one] are 300 to 3000 nM and under 300 nM.
Regarding `COc1cc(F)ccc1N1CCN(c2nc3c(c(=O)[nH]2)CCCC3)CC1` [Compound A36, 2-[4-(4-fluoro-2-methoxy-phenyl)piperazin-1-yl]-5,6,7,8-tetrahydro-3H-quinazolin-4-one], the IC50 on His-tagged Parp-1 is 300 to 3000 nM; in test [1], under 300 nM.
For `N#Cc1ccccc1N1CCN(c2nc3c(c(=O)[nH]2)CCCC3)CC1` [Compound A33, 2-[4-(4-oxo-5,6,7,8-tetrahydro-3H-quinazolin-2-yl)piperazin-1-yl]benzonitrile] the same measures were 300 to 3000 nM and under 300 nM.
In the same order, the values of `O=c1[nH]c(N2CCN(c3ccc(F)cc3)CC2)nc2c1CCCC2` [Compound A6, 2-[4-(4-Fluorophenyl)piperazin-1-yl]-5,6,7,8-tetrahydro-3H-quinazolin-4-one] are 300 to 3000 nM and under 300 nM.
For `COc1ccc(N2CCN(c3nc4c(c(=O)[nH]3)CCCC4)CC2)cc1` [Compound A3, 2-[4-(4-methoxy-phenyl)-piperazin-1-yl]-5,6,7,8-tetrahydro-3H-quinazolin-4-one] the same measures were under 300 nM and under 300 nM.
